Reference: PMC9967275, “Screening the Pathogen Box to Discover and Characterize New Cruzain and TbrCatL Inhibitors” (Pathogens, 2023)
Read-outs that look alike come from different tables or passages of the source.

Experiments:
TbrCatL = biological target: T1, TbrCatL (Trypanosoma brucei rhodesiense, UniProt Q95PM0); assay: TbrCatL enzymatic inhibition assay (cleavage of fluorogenic substrate Z-FR-AMC); assay type: biochemical; conditions: for TbrCatL 0’ Inhibition / TbrCatL 10’ Inhibition: sheet "Screening results";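 as to TbrCatL 0’ Inhibition: at 5 µM compound concentration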;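 as to TbrCatL 10’ Inhibition: at 5 µM compound concentration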;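 as to TbrCatL Inhibition 0’: at 5 µM compound concentration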;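 as to TbrCatL Inhibition 10’: at 5 µM compound concentration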
T1 construct: Conor Caffrey (University of California San Diego)
T1 sequence (Q95PM0 entry or part of it): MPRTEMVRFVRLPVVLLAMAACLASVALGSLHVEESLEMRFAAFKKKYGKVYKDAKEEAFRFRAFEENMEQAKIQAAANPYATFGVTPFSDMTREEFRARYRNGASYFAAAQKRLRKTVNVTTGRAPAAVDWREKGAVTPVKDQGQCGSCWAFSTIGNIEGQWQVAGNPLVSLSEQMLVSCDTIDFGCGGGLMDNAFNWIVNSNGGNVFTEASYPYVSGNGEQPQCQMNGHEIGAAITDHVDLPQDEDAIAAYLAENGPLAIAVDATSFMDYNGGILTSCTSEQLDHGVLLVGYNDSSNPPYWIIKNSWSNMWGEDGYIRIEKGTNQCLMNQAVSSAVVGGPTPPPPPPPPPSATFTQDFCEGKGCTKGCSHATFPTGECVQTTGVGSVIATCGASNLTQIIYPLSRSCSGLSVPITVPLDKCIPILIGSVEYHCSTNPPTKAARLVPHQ
Method in brief: (§1)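 Recombinant enzymes assayed by Z-Phe-Arg-AMC cleavage at 25 °C, fluorescence 340/440 nm over 5–7 min, with 10 min or no enzyme–compound preincubation.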

cruzain = cruzain (Trypanosoma cruzi, UniProt P25779); assay: biochemical;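 as to Cruzain 0’ Inhibition: at 5 µM compound concentration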;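 as to Cruzain 10’ Inhibition: at 5 µM compound concentration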;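 as to Cruzain Inhibition 0’: at 5 µM compound concentration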;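 as to Cruzain Inhibition 10’: at 5 µM compound concentration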
cruzain, sequence (P25779 123-337 limits assumed): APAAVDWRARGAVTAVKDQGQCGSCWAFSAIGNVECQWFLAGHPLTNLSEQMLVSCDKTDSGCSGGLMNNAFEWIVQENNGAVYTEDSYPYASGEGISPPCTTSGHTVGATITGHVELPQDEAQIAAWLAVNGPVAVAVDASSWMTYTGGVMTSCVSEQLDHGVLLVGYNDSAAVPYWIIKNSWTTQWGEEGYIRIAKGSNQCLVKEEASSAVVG
Method in brief: as §1

[1] = 0’ (no pre-incubation), sheet Screening results
[2] = 10’ (pre-incubation), sheet Screening results
[3] = 0’ (pre-incubation time), Pathogen Box screening results
[4] = 10’ (pre-incubation time), Pathogen Box screening results
[5] = 0’ (pre-incubation time), sheet "Screening results"
[6] = 10’ (pre-incubation time), sheet "Screening results"

SMILES | TbrCatL Inhibition 0’ (TbrCatL; [1]) | TbrCatL Inhibition 10’ (TbrCatL; [2]) | Cruzain Inhibition 0’ (cruzain; [1]) | Cruzain Inhibition 10’ (cruzain; [2]) | TbrCatL Inhibition 0’ (TbrCatL; [3]) | TbrCatL Inhibition 10’ (TbrCatL; [4]) | Cruzain Inhibition 0’ (cruzain; [3]) | Cruzain Inhibition 10’ (cruzain; [4]) | also measured
O=C1N(Cc2cc3ccccc3s2)CC2CN(Cc3ccccc3)CCN12 (stereo not drawn) [MMV084603] | 18% | 4.6% | 7.6% | 6.4% |  |  |  |  | 
O=C(Nc1cnc2ccccc2c1)c1cccc(-n2cnnn2)c1 [MMV084864] |  |  |  |  | -11% | 5% | 0% | 11% | 
COc1cncc(-c2cncc(N3CCN(c4ccncc4)CC3)n2)c1 [MMV085071] |  |  |  |  |  |  |  |  | TbrCatL 0’ Inhibition (TbrCatL; 0’ (pre-incubation time)): -0.1%; TbrCatL 10’ Inhibition (TbrCatL; 10’ (pre-incubation time)): -10%; Cruzain 0’ Inhibition (cruzain; [5]): 3.8%; Cruzain 10’ Inhibition (cruzain; [6]): -19%
O=C(C(Cc1c[nH]c2ccccc12)NS(=O)(=O)c1ccc(Cl)cc1)N1CCCCC1 (stereo not drawn) [MMV085210] | 11% | 8% | 4.5% | 6.5% |  |  |  |  | 
CCCNC(=O)N1CCC2(CC1)CC(=O)c1cc(C)ccc1O2 [MMV085230] |  |  |  |  |  |  |  |  | TbrCatL 0’ Inhibition (TbrCatL; 0’ (pre-incubation time)): 8.5%; TbrCatL 10’ Inhibition (TbrCatL; 10’ (pre-incubation time)): 13%; Cruzain 0’ Inhibition (cruzain; [5]): 15%; Cruzain 10’ Inhibition (cruzain; [6]): 18%
N#Cc1ccc(-c2cnc(N)c(-c3ccc(C(N)=O)cc3)n2)cc1 [MMV085499] |  |  |  |  |  |  |  |  | inhibition at 5 µM (TbrCatL; read-out: Inhibition at 5 µM (Mean ± SEM %) TbrCatL 0′): 12 ± 8%; inhibition at 5 µM (TbrCatL; read-out: Inhibition at 5 µM (Mean ± SEM %) TbrCatL 10′ inc): 46 ± 5%; inhibition at 100 µM (TbrCatL; read-out: Inhibition at 100 µM (Mean ± SEM %) TbrCatL 0′): 26 ± 18%; inhibition at 100 µM (TbrCatL; read-out: Inhibition at 100 µM (Mean ± SEM %) TbrCatL 10′ inc): 0%; inhibition at 5 µM (TbrCatL; read-out: TbrCatL 0’ Inhibition): 9%; inhibition at 5 µM (TbrCatL; read-out: TbrCatL 10’ Inhibition): 46%; inhibition at 5 µM (cruzain; read-out: Cruzain 0’ Inhibition, 0’ (pre-incubation time), sheet "Screening results"): 0.5%; inhibition at 5 µM (cruzain; read-out: Cruzain 10’ Inhibition, 10’ (pre-incubation time), sheet "Screening results"): 25%; inhibition at 5 µM (cruzain; read-out: Inhibition at 5 µM (Mean ± SEM %) Cruzain 0′, 5 µM, no pre-incubation, initial screening): 2 ± 3%; inhibition at 5 µM (cruzain; read-out: Inhibition at 5 µM (Mean ± SEM %) Cruzain 10′ inc, 5 µM, 10′ pre-incubation, initial screening): 25 ± 4%; inhibition at 100 µM (cruzain; read-out: Inhibition at 100 µM (Mean ± SEM %) Cruzain 0′, 100 µM, no pre-incubation, solid samples): 0%; inhibition at 100 µM (cruzain; read-out: Inhibition at 100 µM (Mean ± SEM %) Cruzain 10′ inc, 100 µM, 10′ pre-incubation, solid samples): 0%; inhibition at 5 µM (cruzain; read-out: Inhibition of cruzain or TbrCatL (either enzyme) in the initial screening, 5 µM, either cruzain or TbrCatL, with or without pre-incubation): ≥ 40%
CCOC(=O)NC(=O)c1ccsc1NC(=O)c1nc2ccccc2s1 [MMV090930] | 1.3% | 0.3% | -18% | 3% |  |  |  |  | 
O=C(Nc1nnc(-c2ccc(Cl)cc2)o1)c1cccc(C(F)(F)F)c1 [MMV102872] | 0.5% | -16% | -1.6% | -10% |  |  |  |  | 
CCC(C)NC(=O)c1ccc(NC(=O)C2(c3ccccc3)CCCC2)cc1 (stereo not drawn) [MMV146306] |  |  |  |  | -3.2% | -6.5% | 0.6% | 1.8% | 
CCOC(=O)c1c(NC(=O)c2c(F)c(F)c(F)c(F)c2F)sc(C(N)=O)c1C [MMV153413] |  |  |  |  |  |  |  |  | TbrCatL 0’ Inhibition (TbrCatL; 0’ (pre-incubation time)): 1.1%; TbrCatL 10’ Inhibition (TbrCatL; 10’ (pre-incubation time)): 39%; Cruzain 0’ Inhibition (cruzain; [5]): 0.7%; Cruzain 10’ Inhibition (cruzain; [6]): 23%
Cc1cc(Cl)ccc1NC(=O)CCc1ccc(S(=O)(=O)NCC(C)C)cc1 [MMV161996] |  |  |  |  | 15% | 1.5% | -2.2% | 9% | 
CNC(=O)C1Cc2ccccc2N1C(=O)Cc1ccc(F)cc1 (stereo not drawn) [MMV188296] | 14% | 13% | 10% | 10% |  |  |  |  | 
COc1ccc(C2(C(=O)Nc3ccc(Br)cc3)CCCC2)cc1 [MMV200748] |  |  |  |  |  |  |  |  | TbrCatL 0’ Inhibition (TbrCatL; 0’ (pre-incubation time)): -2.7%; TbrCatL 10’ Inhibition (TbrCatL; 10’ (pre-incubation time)): -3%; Cruzain 0’ Inhibition (cruzain; [5]): 3.8%; Cruzain 10’ Inhibition (cruzain; [6]): 4%
COc1ccc(OC(C)C(=O)Nc2ccc(Cl)cc2C)cc1 (stereo not drawn) [MMV202458] | -16% | -19% | -14% | -11% |  |  |  |  | 
CCC(=O)Nc1ccccc1C(=O)Nc1ccccn1 [MMV202553] | 15% | 7% | 15% | 14% |  |  |  |  | 
COc1cccc(NC(=O)c2c(NC(=O)c3cccnc3)sc3c2CCC3)c1 [MMV228911] |  |  |  |  | -8.5% | 4.5% | -1.4% | 4.7% | 
COc1cccc(-n2nnnc2S(C)(=O)=O)c1 [MMV272144] |  |  |  |  | -11% | 9% | -1.3% | 11% | 
COc1cccc(-c2cc3c(Nc4cccnc4)nccc3[nH]2)c1 [MMV392832] |  |  |  |  | 6% | -6.4% | 8.5% | -3.6% | 
